Changes are numbered by the printed parent chain. Where “and” joins values, the source holds several entries; their conditions need not be identical. Equal entries are not always repeated.
Experiments:
[1] = molecular target: T1, wild-type human TRPV6 (hTRPV6) (Homo sapiens, UniProt Q9H1D0); test: Fura-2-based ratiometric measurement of Ca2+ uptake in hTRPV6-expressing HEK 293S cells; type: cell-based; conditions: for normalized change in F340/F380 (Ca2+ uptake relative to no genistein): WT
T1 construct: Full-length wild-type or mutant human TRPV6 was expressed in HEK 293S cells as described above; expressed in transfected cells; host or cells: HEK 293S GnTI- cells, baculovirus (BacMam) transduction
T1 sequence (Q9H1D0 41-765 limits assumed): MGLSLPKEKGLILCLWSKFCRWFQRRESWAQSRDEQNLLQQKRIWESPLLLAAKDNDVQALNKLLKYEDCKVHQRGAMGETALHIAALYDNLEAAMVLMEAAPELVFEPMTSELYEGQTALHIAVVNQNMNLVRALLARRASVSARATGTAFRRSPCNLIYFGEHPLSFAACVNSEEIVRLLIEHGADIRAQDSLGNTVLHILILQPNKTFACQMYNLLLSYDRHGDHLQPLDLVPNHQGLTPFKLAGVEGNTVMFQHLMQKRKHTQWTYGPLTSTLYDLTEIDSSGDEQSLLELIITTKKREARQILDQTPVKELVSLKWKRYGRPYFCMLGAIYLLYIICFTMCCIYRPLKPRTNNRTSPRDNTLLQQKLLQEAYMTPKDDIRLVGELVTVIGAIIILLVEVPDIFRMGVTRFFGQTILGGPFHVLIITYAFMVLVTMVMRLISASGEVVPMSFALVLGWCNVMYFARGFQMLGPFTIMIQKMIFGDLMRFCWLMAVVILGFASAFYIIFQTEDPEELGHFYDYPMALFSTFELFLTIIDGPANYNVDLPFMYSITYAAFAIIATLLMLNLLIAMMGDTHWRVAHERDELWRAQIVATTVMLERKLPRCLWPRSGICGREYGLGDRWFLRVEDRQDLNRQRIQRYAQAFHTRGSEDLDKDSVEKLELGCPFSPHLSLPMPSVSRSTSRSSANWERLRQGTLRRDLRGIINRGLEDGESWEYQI

H582A mutant TRPV6 = molecular target: T2, H582A mutant TRPV6 (Homo sapiens, UniProt Q9H1D0, H622A); test: Fura-2-based measurement of Ca2+ uptake, H582A mutant channels; type: cell-based; conditions: for normalized change in F340/F380 (Ca2+ uptake relative to no genistein): H582A
T2 construct: Full-length wild-type or mutant human TRPV6 was expressed in HEK 293S cells as described above; expressed in transfected cells; host or cells: HEK 293S GnTI- cells, baculovirus (BacMam) transduction
T2 sequence (Q9H1D0 41-765 H622A limits assumed): T1 sequence (Q9H1D0 41-765 limits assumed) with H582A

[2] = molecular target: T1, wild-type human TRPV6 (hTRPV6); test: Whole-cell patch-clamp recording of hTRPV6-mediated currents in HEK 293S cells; type: cell-based; conditions: for TRPV6-mediated current amplitude at −60 mV, normalized to the value in the absence of genistein: WT
H587A mutant TRPV6 = molecular target: T3, H587A mutant TRPV6 (Homo sapiens, UniProt Q9H1D0, H627A); test: Fura-2-based measurement of Ca2+ uptake, H587A mutant channels; type: cell-based; conditions: for normalized change in F340/F380 (Ca2+ uptake relative to no genistein): H587A
T3 construct: Full-length wild-type or mutant human TRPV6 was expressed in HEK 293S cells as described above; expressed in transfected cells; host or cells: HEK 293S GnTI- cells, baculovirus (BacMam) transduction
T3 sequence (Q9H1D0 41-765 H627A limits assumed): T1 sequence (Q9H1D0 41-765 limits assumed) with H587A

H582A-H587A mutant TRPV6 = molecular target: T4, H582A-H587A mutant TRPV6 (Homo sapiens, UniProt Q9H1D0, H622A/H627A); test: Fura-2-based measurement of Ca2+ uptake, H582A-H587A mutant channels; type: cell-based; conditions: for normalized change in F340/F380 (Ca2+ uptake relative to no genistein): H582A-H587A
T4 construct: Full-length wild-type or mutant human TRPV6 was expressed in HEK 293S cells as described above; expressed in transfected cells; host or cells: HEK 293S GnTI- cells, baculovirus (BacMam) transduction
T4 sequence (Q9H1D0 41-765 H622A/H627A limits assumed): T1 sequence (Q9H1D0 41-765 limits assumed) with H582A, H587A

human TRPV6 (human) = test: cryo-EM structure; purified hTRPV6 in 150 mM NaCl, 20 mM Tris-HCl pH 8.0, 1 mM βME, 0.01% GDN, 0.001% CHS, with 2 mM genistein; two populations of particles: open (C4, 2.71 Å) and genistein-bound (C1, 2.66 Å)
[3] = Conc 30, individual experiments
[4] = Conc 100, individual experiments
[5] = Conc 300, individual experiments
[6] = Conc 1000, individual experiments
[7] = Conc 3000, individual experiments
[8] = Conc 10, individual experiments
[9] = Conc 10000, individual experiments

O=c1c(-c2ccc(O)cc2)coc2cc(O)cc(O)c12 [genistein, 4′,5,7-trihydroxyisoflavone]
normalized change in F340/F380 (Ca2+ uptake relative to no genistein) ([1]; Conc 10 (µM per Fig. 1c), individual experiments): 0.9427 and 0.8061 and 0.8429
normalized change in F340/F380 (Ca2+ uptake relative to no genistein) [1, 3]: 0.7049 and 0.7764 and 0.7537
normalized change in F340/F380 (Ca2+ uptake relative to no genistein) [1, 4]: 0.5343 and 0.4706 and 0.5414
normalized change in F340/F380 (Ca2+ uptake relative to no genistein) [1, 5]: 0.3064 and 0.3178 and 0.351
normalized change in F340/F380 (Ca2+ uptake relative to no genistein) [1, 6]: 0.1486 and 0.1458 and 0.1663
normalized change in F340/F380 (Ca2+ uptake relative to no genistein) [1, 7]: 0.07643 and 0.09271
IC50 ([1]; wild-type, 10 mM Ca2+ after pre-incubation, mean ± SEM, n = 3, read-out: IC50, inhibition of hTRPV6-mediated Ca2+ uptake): 113 µM
Hill coefficient nHill, inhibition of Ca2+ uptake ([1]; wild-type, n = 3): 0.77 ± 0.02
IC50 (H582A mutant TRPV6): 184 ± 24 µM
Hill coefficient nHill (H582A mutant TRPV6; H582A mutant, n = 3): 0.73 ± 0.04
normalized change in F340/F380 (Ca2+ uptake relative to no genistein) (H582A mutant TRPV6; Conc 3, individual experiments): 1.0287 and 0.8943 and 0.9077
normalized change in F340/F380 (Ca2+ uptake relative to no genistein) (H582A mutant TRPV6; [8]): 0.885 and 0.8976 and 0.8985
normalized change in F340/F380 (Ca2+ uptake relative to no genistein) (H582A mutant TRPV6; [3]): 0.8976 and 0.8451 and 0.809
normalized change in F340/F380 (Ca2+ uptake relative to no genistein) (H582A mutant TRPV6; [4]): 0.6519 and 0.7074 and 0.5784
normalized change in F340/F380 (Ca2+ uptake relative to no genistein) (H582A mutant TRPV6; [5]): 0.3755 and 0.336 and 0.3944
normalized change in F340/F380 (Ca2+ uptake relative to no genistein) (H582A mutant TRPV6; [6]): 0.155 and 0.378 and 0.368
normalized change in F340/F380 (Ca2+ uptake relative to no genistein) (H582A mutant TRPV6; [7]): 0.1504 and 0.2134 and 0.1508
IC50 [2]: 40.7 ± 2.6 µM
inhibition at 50 µM ([2]; HEK293S, 50 µM genistein, –60 mV membrane potential, mean ± SEM, n = 13, read-out: inhibition of the hTRPV6-mediated current): 54 ± 4%
TRPV6-mediated current amplitude at −60 mV, normalized to the value in the absence of genistein ([2]; Conc 6.25 (µM per Supplementary Fig. 1), individual measurements): 0.8818 and 0.9418 and 0.9228 and 0.9734 and 0.9342 and 0.9778 and 0.9793
TRPV6-mediated current amplitude at −60 mV, normalized to the value in the absence of genistein ([2]; Conc 12.5, individual measurements): 0.8695 and 0.8933 and 0.8898 and 0.8819 and 0.904 and 0.9294 and 0.929
TRPV6-mediated current amplitude at −60 mV, normalized to the value in the absence of genistein ([2]; Conc 25, individual measurements): 0.744 and 0.6559 and 0.7679 and 0.6876 and 0.7485 and 0.5641 and 0.5617
TRPV6-mediated current amplitude at −60 mV, normalized to the value in the absence of genistein ([2]; Conc 50, individual measurements): 0.3726 and 0.4985 and 0.3764 and 0.4722 and 0.3722 (2×)
Hill coefficient nHill, current inhibition ([2]; current amplitude at −60 mV, logistic fit, n = 7): 1.80 and 1.80 ± 0.13
IC50 (H587A mutant TRPV6): 267 ± 29 µM
Hill coefficient nHill (H587A mutant TRPV6; H587A mutant, n = 3): 0.67 ± 0.03
normalized change in F340/F380 (Ca2+ uptake relative to no genistein) (H587A mutant TRPV6; [8]): 0.9155 and 0.8981 and 0.9014
normalized change in F340/F380 (Ca2+ uptake relative to no genistein) (H587A mutant TRPV6; [3]): 0.7349 and 0.8633 and 0.7848
normalized change in F340/F380 (Ca2+ uptake relative to no genistein) (H587A mutant TRPV6; [4]): 0.5614 and 0.5516 and 0.49
normalized change in F340/F380 (Ca2+ uptake relative to no genistein) (H587A mutant TRPV6; [5]): 0.505 and 0.498 and 0.5741
normalized change in F340/F380 (Ca2+ uptake relative to no genistein) (H587A mutant TRPV6; [6]): 0.2958 and 0.3277 and 0.2981
normalized change in F340/F380 (Ca2+ uptake relative to no genistein) (H587A mutant TRPV6; [7]): 0.1683 and 0.1914 and 0.1575
normalized change in F340/F380 (Ca2+ uptake relative to no genistein) (H587A mutant TRPV6; [9]): 0.08605 and 0.071 and 0.06959
IC50 (H582A-H587A mutant TRPV6): 318 ± 45 µM
Hill coefficient nHill (H582A-H587A mutant TRPV6; H582A-H587A mutant, n = 3): 0.71 ± 0.06
normalized change in F340/F380 (Ca2+ uptake relative to no genistein) (H582A-H587A mutant TRPV6; [8]): 0.8831 and 0.8274 and 0.7934
normalized change in F340/F380 (Ca2+ uptake relative to no genistein) (H582A-H587A mutant TRPV6; [3]): 0.9307 and 0.8133 and 0.7372
normalized change in F340/F380 (Ca2+ uptake relative to no genistein) (H582A-H587A mutant TRPV6; [4]): 0.6996 and 0.5804 and 0.6176
normalized change in F340/F380 (Ca2+ uptake relative to no genistein) (H582A-H587A mutant TRPV6; [5]): 0.6004 and 0.5392 and 0.6135 and 0.4739
normalized change in F340/F380 (Ca2+ uptake relative to no genistein) (H582A-H587A mutant TRPV6; [6]): 0.3135 and 0.3303
normalized change in F340/F380 (Ca2+ uptake relative to no genistein) (H582A-H587A mutant TRPV6; [7]): 0.1423 and 0.1604 and 0.1695
normalized change in F340/F380 (Ca2+ uptake relative to no genistein) (H582A-H587A mutant TRPV6; [9]): 0.08246 and 0.05437 and 0.05709

human TRPV6 (natural protein)
stoichiometry N (human TRPV6 (human)): 4

— article PMC10169861, “Structural mechanism of human oncochannel TRPV6 inhibition by the natural phytoestrogen genistein” (Nature Communications, 2023)
